Source: PubChem BioAssay (NCI)
“And” between values parts separate entries of the source, which are not always exact repeats. Identical values can stand only once.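 Tested at 5 concentrations; 48 h exposure; 96-well plates; endpoints linearly interpolated, else capped at highest concentration. Here, GI50 denotes the concentration required for 50% inhibition of growth. TGI denotes the concentration required for complete inhibition of growth.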

Tests used:
Assay in all cases: NCI tumour cell line growth inhibition, 48 h
IGROV1 ovarian = test system: IGROV1 ovarian
UACC-62 melanoma = test system: UACC-62 melanoma
HCC-2998 colon = test system: HCC-2998 colon
SW-620 colon = test system: SW-620 colon
LOX IMVI melanoma = test system: LOX IMVI melanoma
HOP-92 NSCLC = test system: HOP-92 NSCLC
TK-10 renal = test system: TK-10 renal
RXF 393 renal = test system: RXF 393 renal
OVCAR-8 ovarian = test system: OVCAR-8 ovarian
OVCAR-5 ovarian = test system: OVCAR-5 ovarian

## Cc1ccc(OCC2OC(n3cnc4c(Br)nc(Br)nc43)CC2Oc2ccc(C)cc2)cc1 (stereo not drawn)
IGROV1 ovarian
  GI50: 2.71 µM
  TGI: 8.86 µM and 9.89 µM
UACC-62 melanoma
  GI50: 3.1 µM
  TGI: 11.4 µM and 20.6 µM
HCC-2998 colon
  GI50: 3.07 µM
  TGI: 11.8 µM and 7.24 µM
SW-620 colon
  GI50: 3.02 µM
  TGI: 10.1 µM and 12.3 µM
LOX IMVI melanoma
  GI50: 1.42 µM
  TGI: 2.47 µM and 3.67 µM
HOP-92 NSCLC
  GI50: 1.16 µM
  TGI: 2.55 µM and 5.36 µM
TK-10 renal
  GI50: 14.4 µM
  TGI: 28.4 µM and > 54.3 µM
RXF 393 renal
  GI50: 13.3 µM
  TGI: 28.2 µM and 22.4 µM
OVCAR-8 ovarian
  GI50: 18.2 µM
  TGI: 42.7 µM and 14.3 µM
OVCAR-5 ovarian
  GI50: 16.1 µM
  TGI: 34.2 µM and 42.2 µM

## Nc1ccc(Sc2c3ccccc3nc3ccccc23)cc1
IGROV1 ovarian
  TGI: 37.6 µM
UACC-62 melanoma
  TGI: 30.5 µM
HCC-2998 colon
  TGI: 59.5 µM
SW-620 colon
  TGI: 39 µM
LOX IMVI melanoma
  TGI: 13.9 µM
HOP-92 NSCLC
  TGI: > 38 µM
TK-10 renal
  TGI: 34.2 µM
RXF 393 renal
  TGI: 40.4 µM
OVCAR-8 ovarian
  TGI: 28.6 µM
OVCAR-5 ovarian
  TGI: 52 µM

## Cc1cc(=O)oc2cc(OC/C=C3\CCC(=O)O3)ccc12
IGROV1 ovarian
  GI50: 13.2 µM
  TGI: 28.7 µM
UACC-62 melanoma
  GI50: 13.8 µM
  TGI: 28.7 µM
HCC-2998 colon
  GI50: 16 µM
  TGI: 31.4 µM
SW-620 colon
  GI50: 5.56 µM
  TGI: 28 µM
LOX IMVI melanoma
  GI50: 7.99 µM
  TGI: 22.9 µM
HOP-92 NSCLC
  GI50: 12.1 µM
  TGI: 28.4 µM
TK-10 renal
  GI50: 12.2 µM
  TGI: 27.2 µM
RXF 393 renal
  GI50: 13.1 µM
  TGI: 31.9 µM
OVCAR-8 ovarian
  GI50: 23.5 µM
  TGI: > 74.5 µM
OVCAR-5 ovarian
  GI50: 17.1 µM
  TGI: 36.4 µM

## O=c1cc(-c2ccccc2)[nH]c2cc(Cl)ccc12
IGROV1 ovarian
  TGI: > 100 µM
UACC-62 melanoma
  TGI: 11.9 µM
HCC-2998 colon
  TGI: 4.76 µM
SW-620 colon
  TGI: 16.9 µM
LOX IMVI melanoma
  TGI: 21.7 µM
HOP-92 NSCLC
  TGI: 57.5 µM
TK-10 renal
  TGI: > 100 µM
RXF 393 renal
  TGI: 1.08 µM
OVCAR-8 ovarian
  TGI: 33.1 µM
OVCAR-5 ovarian
  TGI: > 100 µM

## [CH3][Sn]([CH3])([CH3])[O][N+](=O)[O-]
IGROV1 ovarian
  GI50: 2.39 µM
  TGI: > 10 µM
UACC-62 melanoma
  GI50: 3.91 µM
  TGI: > 10 µM
HCC-2998 colon
  GI50: > 10 µM
  TGI: > 10 µM
SW-620 colon
  GI50: 2.06 µM
  TGI: 4.8 µM
LOX IMVI melanoma
  GI50: 2.52 µM
  TGI: 6.63 µM
HOP-92 NSCLC
  GI50: 3.39 µM
  TGI: > 10 µM
TK-10 renal
  GI50: > 10 µM
  TGI: > 10 µM
RXF 393 renal
  GI50: 2.19 µM
  TGI: 9.73 µM
OVCAR-8 ovarian
  GI50: 3.6 µM
  TGI: > 10 µM
OVCAR-5 ovarian
  GI50: 6.73 µM
  TGI: > 10 µM

## COc1cc(/C=C2/C(=O)N(C(=O)OCc3ccccc3)C(Cc3cc(OC)c(OC)c(C)c3OC)C(=O)N2Cc2ccccc2)c(OC)c(C)c1OC (stereo not drawn)
IGROV1 ovarian
  TGI: > 100 µM
UACC-62 melanoma
  TGI: > 100 µM
HCC-2998 colon
  TGI: > 100 µM
SW-620 colon
  TGI: > 100 µM
LOX IMVI melanoma
  TGI: > 100 µM
HOP-92 NSCLC
  TGI: > 100 µM
TK-10 renal
  TGI: > 100 µM
RXF 393 renal
  TGI: > 100 µM
OVCAR-8 ovarian
  TGI: > 100 µM
OVCAR-5 ovarian
  TGI: > 100 µM

## O=C(O[C@H]1CCN2C[C@H]3C[C@H](CN4C(=O)CCC[C@H]34)[C@@H]2C1)c1ccc(O)cc1
IGROV1 ovarian
  TGI: > 100 µM
UACC-62 melanoma
  TGI: > 100 µM
HCC-2998 colon
  TGI: > 100 µM
SW-620 colon
  TGI: > 100 µM
LOX IMVI melanoma
  TGI: > 100 µM
HOP-92 NSCLC
  TGI: > 100 µM
TK-10 renal
  TGI: > 100 µM
RXF 393 renal
  TGI: > 100 µM
OVCAR-8 ovarian
  TGI: > 100 µM
OVCAR-5 ovarian
  TGI: > 100 µM

## CCCCCCCCCCCCCB(O)O
IGROV1 ovarian
  TGI: > 100 µM
UACC-62 melanoma
  TGI: > 100 µM
HCC-2998 colon
  GI50: > 100 µM and 32 µM
  TGI: > 100 µM and 84.7 µM
SW-620 colon
  TGI: > 100 µM
LOX IMVI melanoma
  TGI: > 100 µM
HOP-92 NSCLC
  GI50: > 100 µM and 25.1 µM
  TGI: > 100 µM and 82.9 µM
TK-10 renal
  TGI: > 100 µM
RXF 393 renal
  GI50: > 100 µM and 29.5 µM
  TGI: > 100 µM and 73.7 µM
OVCAR-8 ovarian
  TGI: > 100 µM
OVCAR-5 ovarian
  TGI: > 100 µM

## CC1=C([Se]CC(OC(=O)[C@@H](CO)NC(=O)OC(C)(C)C)C(=O)NCCCCCC(=O)OCc2ccccc2)C(=O)c2ccccc2C1=O (stereo partly drawn)
IGROV1 ovarian
  GI50: 1.79 µM
  TGI: 3.37 µM
UACC-62 melanoma
  GI50: 1.68 µM
  TGI: 3.07 µM
HCC-2998 colon
  GI50: 1.98 µM
  TGI: 3.48 µM
SW-620 colon
  GI50: 1.72 µM
  TGI: 3.25 µM
LOX IMVI melanoma
  GI50: 1.84 µM
  TGI: 3.72 µM
HOP-92 NSCLC
  GI50: 1.87 µM
  TGI: 3.32 µM
TK-10 renal
  GI50: 2.04 µM
  TGI: 3.47 µM
RXF 393 renal
  GI50: 2.7 µM
  TGI: 4.18 µM
OVCAR-8 ovarian
  GI50: 1.84 µM
  TGI: 3.36 µM
OVCAR-5 ovarian
  GI50: 2.09 µM
  TGI: 3.65 µM
